Measured values: publication doi:10.1101/2024.08.13.607785v1 (biorxiv, 2024)

Tests used:
Set-up in all cases: species or system mixed lysate of K562, MV4-11, THP-1, NCI-H1155
[1] = target: T1, Ephrin type-B receptor 2 ; EPHB2 ; P29323 (Homo sapiens, UniProt P29323); conditions: DIA-MS residual binding; binder
T1 sequence (P29323 1-1055): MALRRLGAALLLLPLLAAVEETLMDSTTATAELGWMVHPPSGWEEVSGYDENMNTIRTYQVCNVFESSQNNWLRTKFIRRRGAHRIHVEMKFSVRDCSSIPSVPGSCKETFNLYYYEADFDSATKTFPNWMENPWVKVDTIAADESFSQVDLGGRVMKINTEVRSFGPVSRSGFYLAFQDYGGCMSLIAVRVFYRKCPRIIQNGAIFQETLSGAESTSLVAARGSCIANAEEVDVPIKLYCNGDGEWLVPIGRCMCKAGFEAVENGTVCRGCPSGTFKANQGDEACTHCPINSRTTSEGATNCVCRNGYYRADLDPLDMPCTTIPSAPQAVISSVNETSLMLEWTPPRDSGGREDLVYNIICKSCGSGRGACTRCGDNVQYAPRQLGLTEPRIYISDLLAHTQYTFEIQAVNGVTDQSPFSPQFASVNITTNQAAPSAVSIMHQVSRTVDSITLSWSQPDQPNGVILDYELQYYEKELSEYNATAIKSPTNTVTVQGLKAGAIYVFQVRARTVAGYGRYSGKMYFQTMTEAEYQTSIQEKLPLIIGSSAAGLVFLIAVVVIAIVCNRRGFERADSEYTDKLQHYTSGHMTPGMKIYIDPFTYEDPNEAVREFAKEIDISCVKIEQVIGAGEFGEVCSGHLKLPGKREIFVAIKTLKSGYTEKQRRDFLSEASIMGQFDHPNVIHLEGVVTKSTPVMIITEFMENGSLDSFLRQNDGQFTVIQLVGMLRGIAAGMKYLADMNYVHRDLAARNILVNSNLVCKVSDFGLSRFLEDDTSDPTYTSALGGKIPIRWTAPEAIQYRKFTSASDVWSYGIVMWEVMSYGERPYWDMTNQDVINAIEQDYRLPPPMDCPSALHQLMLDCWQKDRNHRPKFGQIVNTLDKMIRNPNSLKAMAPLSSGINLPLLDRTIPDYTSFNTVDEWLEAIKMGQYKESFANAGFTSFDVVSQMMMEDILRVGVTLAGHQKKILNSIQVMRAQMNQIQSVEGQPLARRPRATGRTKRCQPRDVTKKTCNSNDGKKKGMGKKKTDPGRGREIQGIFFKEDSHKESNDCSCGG

[2] = target: T2, Cyclin-G-associated kinase ; GAK ; O14976 (Homo sapiens, UniProt O14976); conditions: DIA-MS residual binding; binder
T2 sequence (O14976 1-1311): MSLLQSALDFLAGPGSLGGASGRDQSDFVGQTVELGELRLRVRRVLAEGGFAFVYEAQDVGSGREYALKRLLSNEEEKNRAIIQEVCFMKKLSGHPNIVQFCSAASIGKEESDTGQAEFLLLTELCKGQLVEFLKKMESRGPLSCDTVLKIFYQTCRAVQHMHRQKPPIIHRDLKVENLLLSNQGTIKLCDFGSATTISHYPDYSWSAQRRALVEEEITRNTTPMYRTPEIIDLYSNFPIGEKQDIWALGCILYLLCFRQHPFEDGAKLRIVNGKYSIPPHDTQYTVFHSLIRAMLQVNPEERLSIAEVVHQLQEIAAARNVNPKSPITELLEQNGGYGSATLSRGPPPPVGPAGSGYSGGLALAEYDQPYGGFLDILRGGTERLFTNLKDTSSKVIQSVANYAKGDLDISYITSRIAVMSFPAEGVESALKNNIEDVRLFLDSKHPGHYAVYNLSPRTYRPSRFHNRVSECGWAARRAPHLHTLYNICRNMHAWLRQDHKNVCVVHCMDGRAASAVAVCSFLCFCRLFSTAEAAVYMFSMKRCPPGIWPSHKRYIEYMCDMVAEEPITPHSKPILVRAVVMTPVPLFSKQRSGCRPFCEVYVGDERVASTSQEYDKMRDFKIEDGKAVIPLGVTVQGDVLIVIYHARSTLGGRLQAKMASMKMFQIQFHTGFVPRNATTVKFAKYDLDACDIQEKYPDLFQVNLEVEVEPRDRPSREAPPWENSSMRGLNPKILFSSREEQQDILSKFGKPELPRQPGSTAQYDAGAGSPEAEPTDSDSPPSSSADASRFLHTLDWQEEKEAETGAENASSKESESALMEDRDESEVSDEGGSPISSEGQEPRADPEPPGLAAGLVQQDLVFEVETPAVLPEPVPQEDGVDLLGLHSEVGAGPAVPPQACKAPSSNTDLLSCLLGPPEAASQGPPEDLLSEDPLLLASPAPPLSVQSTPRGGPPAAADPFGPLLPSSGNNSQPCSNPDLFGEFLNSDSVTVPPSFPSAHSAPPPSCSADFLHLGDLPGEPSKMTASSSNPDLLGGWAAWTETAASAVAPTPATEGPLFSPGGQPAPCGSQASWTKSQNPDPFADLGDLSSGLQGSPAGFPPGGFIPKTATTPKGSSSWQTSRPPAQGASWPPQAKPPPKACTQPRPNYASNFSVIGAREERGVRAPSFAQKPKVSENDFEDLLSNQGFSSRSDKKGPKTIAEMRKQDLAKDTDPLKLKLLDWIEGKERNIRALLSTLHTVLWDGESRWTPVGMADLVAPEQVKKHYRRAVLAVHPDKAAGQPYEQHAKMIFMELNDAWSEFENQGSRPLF

[3] = target: Serine/threonine-protein kinase LMTK2 ; LMTK2 ; Q8IWU2 (Homo sapiens, UniProt Q8IWU2); conditions: DIA-MS residual binding; binder
[4] = target: Tyrosine-protein kinase FRK ; FRK ; P42685 (Homo sapiens, UniProt P42685); conditions: DIA-MS residual binding; binder
[5] = target: Serine/threonine-protein kinase 25 ; STK25 ; O00506 (Homo sapiens, UniProt O00506); conditions: binder
[6] = target: Phosphatidylinositol 4-kinase alpha ; PI4KA ; P42356 (Homo sapiens, UniProt P42356); conditions: DIA-MS residual binding; binder
Sequence of Phosphatidylinositol 4-kinase alpha ; PI4KA ; P42356 (P42356 whole entry): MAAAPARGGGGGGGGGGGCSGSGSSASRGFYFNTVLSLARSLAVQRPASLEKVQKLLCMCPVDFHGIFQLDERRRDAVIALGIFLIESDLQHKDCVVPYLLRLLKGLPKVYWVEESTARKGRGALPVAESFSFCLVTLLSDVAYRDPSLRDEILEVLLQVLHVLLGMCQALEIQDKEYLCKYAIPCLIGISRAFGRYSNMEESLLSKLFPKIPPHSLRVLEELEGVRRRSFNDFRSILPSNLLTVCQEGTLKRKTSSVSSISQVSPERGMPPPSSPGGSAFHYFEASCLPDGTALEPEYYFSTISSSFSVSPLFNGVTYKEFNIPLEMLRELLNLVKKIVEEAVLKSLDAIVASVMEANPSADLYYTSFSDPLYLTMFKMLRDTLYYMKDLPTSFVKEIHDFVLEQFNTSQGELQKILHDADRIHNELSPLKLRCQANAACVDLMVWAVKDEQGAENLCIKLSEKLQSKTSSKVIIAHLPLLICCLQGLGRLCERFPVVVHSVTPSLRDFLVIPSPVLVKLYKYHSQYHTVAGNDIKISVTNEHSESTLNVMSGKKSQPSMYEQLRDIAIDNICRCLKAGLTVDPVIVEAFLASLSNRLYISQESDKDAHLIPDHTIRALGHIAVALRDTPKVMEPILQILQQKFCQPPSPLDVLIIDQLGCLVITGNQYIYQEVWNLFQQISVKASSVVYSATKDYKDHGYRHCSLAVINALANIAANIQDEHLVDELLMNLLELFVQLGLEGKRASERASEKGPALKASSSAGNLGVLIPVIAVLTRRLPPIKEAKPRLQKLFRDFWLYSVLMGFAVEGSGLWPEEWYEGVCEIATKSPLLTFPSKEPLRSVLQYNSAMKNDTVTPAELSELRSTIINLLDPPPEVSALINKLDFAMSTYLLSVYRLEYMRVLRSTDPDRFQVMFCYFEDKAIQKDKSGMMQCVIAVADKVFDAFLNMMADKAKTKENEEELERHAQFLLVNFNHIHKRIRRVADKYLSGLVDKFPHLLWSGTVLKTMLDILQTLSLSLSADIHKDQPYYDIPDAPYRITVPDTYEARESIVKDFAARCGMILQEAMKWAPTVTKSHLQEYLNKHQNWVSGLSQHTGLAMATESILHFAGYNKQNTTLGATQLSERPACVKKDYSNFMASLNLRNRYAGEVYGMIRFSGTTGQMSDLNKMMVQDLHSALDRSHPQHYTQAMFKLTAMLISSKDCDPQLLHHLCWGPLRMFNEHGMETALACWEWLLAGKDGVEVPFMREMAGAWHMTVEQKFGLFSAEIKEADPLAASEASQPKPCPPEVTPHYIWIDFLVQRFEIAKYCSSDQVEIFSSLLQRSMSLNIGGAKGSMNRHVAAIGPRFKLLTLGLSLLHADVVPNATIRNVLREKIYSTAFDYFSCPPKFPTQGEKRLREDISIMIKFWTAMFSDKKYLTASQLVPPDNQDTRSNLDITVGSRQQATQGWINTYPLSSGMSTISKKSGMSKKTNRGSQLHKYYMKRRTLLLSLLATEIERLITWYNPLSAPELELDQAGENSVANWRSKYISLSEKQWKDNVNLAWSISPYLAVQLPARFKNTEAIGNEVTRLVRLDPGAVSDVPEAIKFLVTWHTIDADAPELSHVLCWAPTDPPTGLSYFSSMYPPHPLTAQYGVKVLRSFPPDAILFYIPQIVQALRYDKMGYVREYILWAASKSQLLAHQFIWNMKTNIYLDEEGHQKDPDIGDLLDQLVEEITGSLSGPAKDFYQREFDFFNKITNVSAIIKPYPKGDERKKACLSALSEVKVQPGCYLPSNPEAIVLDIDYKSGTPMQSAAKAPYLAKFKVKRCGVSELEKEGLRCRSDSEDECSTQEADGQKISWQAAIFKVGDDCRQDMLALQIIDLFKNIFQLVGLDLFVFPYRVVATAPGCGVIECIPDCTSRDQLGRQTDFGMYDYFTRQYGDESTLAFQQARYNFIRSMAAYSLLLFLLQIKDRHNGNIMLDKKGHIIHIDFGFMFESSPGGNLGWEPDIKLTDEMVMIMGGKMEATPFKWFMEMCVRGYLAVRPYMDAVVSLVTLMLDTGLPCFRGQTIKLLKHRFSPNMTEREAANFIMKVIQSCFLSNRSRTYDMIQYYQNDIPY

Sequence of Serine/threonine-protein kinase LMTK2 ; LMTK2 ; Q8IWU2 (Q8IWU2 whole entry, one chain of several): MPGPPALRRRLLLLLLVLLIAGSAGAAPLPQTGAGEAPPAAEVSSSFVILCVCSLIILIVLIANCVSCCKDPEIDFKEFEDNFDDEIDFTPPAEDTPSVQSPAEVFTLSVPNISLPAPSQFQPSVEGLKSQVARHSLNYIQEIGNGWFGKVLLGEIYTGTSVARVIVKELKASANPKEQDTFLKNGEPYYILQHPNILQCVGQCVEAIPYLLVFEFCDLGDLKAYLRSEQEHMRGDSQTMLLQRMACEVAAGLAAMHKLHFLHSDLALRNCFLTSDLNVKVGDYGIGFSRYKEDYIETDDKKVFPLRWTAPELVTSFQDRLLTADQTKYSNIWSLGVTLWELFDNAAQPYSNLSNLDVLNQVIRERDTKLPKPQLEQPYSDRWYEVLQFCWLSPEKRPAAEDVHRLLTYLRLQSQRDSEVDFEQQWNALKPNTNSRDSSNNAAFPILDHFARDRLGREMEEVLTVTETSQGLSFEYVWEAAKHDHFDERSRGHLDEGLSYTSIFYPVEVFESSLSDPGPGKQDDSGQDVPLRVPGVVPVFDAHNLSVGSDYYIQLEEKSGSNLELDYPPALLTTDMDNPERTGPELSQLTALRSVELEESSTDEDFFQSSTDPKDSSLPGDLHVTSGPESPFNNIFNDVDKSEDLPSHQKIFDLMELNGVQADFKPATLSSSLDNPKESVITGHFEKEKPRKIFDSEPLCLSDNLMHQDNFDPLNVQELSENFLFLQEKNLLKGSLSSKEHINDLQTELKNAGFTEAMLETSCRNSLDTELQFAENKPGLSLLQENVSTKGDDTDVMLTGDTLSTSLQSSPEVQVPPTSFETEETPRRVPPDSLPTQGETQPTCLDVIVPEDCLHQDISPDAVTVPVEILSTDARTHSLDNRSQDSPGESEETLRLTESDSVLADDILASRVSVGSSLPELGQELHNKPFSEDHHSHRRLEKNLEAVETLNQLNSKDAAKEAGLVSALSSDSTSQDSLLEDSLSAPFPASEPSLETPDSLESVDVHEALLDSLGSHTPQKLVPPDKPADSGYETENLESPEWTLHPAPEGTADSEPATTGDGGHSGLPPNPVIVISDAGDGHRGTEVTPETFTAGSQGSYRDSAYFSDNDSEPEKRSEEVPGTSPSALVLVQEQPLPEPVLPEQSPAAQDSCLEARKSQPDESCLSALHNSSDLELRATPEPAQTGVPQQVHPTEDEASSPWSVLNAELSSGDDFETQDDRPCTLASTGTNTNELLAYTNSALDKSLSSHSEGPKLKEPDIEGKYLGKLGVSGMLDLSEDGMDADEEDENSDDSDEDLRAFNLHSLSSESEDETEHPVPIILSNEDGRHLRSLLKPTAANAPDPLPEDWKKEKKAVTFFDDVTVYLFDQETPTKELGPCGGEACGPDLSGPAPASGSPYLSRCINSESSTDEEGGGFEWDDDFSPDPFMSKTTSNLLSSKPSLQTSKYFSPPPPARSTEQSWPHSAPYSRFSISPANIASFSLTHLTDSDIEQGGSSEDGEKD
Sequence of Serine/threonine-protein kinase 25 ; STK25 ; O00506 (O00506 whole entry, one chain of several): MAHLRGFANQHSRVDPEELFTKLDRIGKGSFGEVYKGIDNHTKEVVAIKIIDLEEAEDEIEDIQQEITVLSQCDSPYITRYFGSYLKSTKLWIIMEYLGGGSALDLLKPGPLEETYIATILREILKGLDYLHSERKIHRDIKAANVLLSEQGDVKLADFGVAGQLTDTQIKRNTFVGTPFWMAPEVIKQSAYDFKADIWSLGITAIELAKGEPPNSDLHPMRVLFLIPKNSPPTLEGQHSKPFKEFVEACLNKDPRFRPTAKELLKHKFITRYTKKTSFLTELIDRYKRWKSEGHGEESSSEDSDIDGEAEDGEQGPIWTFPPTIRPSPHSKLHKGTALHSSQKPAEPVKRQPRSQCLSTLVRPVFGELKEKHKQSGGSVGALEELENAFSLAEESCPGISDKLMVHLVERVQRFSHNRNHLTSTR
Sequence of Tyrosine-protein kinase FRK ; FRK ; P42685 (P42685 whole entry): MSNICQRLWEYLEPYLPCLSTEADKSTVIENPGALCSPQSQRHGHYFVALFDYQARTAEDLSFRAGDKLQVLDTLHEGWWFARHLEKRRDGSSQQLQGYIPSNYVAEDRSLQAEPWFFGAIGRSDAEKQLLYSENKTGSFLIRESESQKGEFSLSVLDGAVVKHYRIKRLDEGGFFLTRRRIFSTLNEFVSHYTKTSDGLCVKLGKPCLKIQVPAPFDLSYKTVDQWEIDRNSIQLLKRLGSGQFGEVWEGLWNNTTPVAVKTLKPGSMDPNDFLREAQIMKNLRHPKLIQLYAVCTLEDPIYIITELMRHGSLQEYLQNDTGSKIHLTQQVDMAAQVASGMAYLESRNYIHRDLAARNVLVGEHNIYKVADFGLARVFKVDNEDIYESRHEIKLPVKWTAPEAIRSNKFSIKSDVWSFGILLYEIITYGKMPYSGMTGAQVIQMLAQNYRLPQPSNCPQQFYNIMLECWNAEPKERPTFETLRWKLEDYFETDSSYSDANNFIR

Cc1nc(Nc2ncc(C(=O)Nc3c(C)cccc3Cl)s2)cc(N2CCN(CCO)CC2)n1 [dasatinib]
DIA-MS / % Intensity (30 µM/DMSO) [1]: 3.776%
DIA-MS / % Intensity (30 µM/DMSO) [2]: 4.611%
DIA-MS / % Intensity (30 µM/DMSO) [3]: 9.818%
DIA-MS / % Intensity (30 µM/DMSO) [4]: 2.249%
DIA-MS / % Intensity (30 µM/DMSO) [5]: 52%
DIA-MS / % Intensity (30 µM/DMSO) [6]: 31.23%
